Reference: US20240398759A1, “INHIBITING SEROTONIN TRANSPORTER PROTEIN (5-HTT)” (priority 2022, published 2024)
Like-named read-outs stand apart in the source and are kept apart here.

Tests used:
SERT = SERT (Homo sapiens (Human), UniProt P31645); test: SERT inhibition assay (Neurotransmitter Transporter fluorescence uptake, stable 5HTT HEK293 cells); type: cell-based; conditions: n=6 ± SD
Protocol: SERT inhibition was measured using a Neruotransmitter Transportation Fluorescence assay. Briefly, stable 5HTT HEK293 cells were prepared in a 384 microwell plate (20,000 cells per 20 μL well). Compounds were prepared by in assay buffer (20 mM HEPES in HBSS, 0.1% BSA) at a top concentration of 1 μM. 10 doses of test compound (3-fold serial dilution) were added to the plated cells and incubated for 30 minutes at 37° C. 25 μL of dye solution (Molecular Devices Neurotransmitter Transporter Uptake Assay Kit) was added per well and incubated for 30 minutes at 37° C.

PDE4A1A = PDE4A1A (Homo sapiens (Human), UniProt P27815); test: PDE4 inhibition assay (fluorescence polarization), PDE4A1A; type: biochemical
Sequence of PDE4A1A (P27815 other isoform, or with tags, fused parts or gaps): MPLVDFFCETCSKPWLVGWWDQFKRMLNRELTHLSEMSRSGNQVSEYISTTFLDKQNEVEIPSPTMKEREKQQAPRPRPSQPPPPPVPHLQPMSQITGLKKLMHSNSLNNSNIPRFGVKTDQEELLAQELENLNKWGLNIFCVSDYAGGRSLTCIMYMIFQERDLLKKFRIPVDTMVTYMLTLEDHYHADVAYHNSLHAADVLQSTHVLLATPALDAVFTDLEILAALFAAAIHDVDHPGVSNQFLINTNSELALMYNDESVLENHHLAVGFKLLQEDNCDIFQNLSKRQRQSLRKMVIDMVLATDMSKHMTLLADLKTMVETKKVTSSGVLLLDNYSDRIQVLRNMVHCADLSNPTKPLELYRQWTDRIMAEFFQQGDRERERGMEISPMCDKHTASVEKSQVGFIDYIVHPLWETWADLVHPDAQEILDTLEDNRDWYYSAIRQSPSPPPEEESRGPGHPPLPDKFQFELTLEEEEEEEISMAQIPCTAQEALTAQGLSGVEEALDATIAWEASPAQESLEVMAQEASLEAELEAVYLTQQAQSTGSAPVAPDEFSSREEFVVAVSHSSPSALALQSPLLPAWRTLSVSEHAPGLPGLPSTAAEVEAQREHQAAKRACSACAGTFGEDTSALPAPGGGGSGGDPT
Protocol: (§1) 100 μM dilutions of the test compounds were prepared in assay buffer (10% DMSO concentration) and 5 μl of the dilution was added to a 50 μl reaction so that the final concentration of DMSO is 1% in all of reactions. The enzymatic reactions were conducted at room temperature for 60 minutes in a 50 μl mixture containing PDE assay buffer, 100 nM FAM-cAMP, a PDE enzyme (Table 2.3.1) and the test compound (Section 2.2). After the enzymatic reaction, 100 μl of a binding solution (1:100 dilution of the binding agent with the binding agent diluent) was added to each reaction and the reaction was performed at room temperature for 60 minutes. Fluorescence intensity was measured at an excitation of 485 nm and an emission of 528 nm using a Tecan Infinite M1000 microplate reader.
(§2) • 1) Dilute 20 μM FAM-Cyclic-3′, 5′-AMP stock 100-fold with PDE buffer to make a 200 nM solution. • 2) Add 25 μl of FAM-Cyclic-3′,5′-AMP (200 nM) to each well designated “Positive Control”, “Test Inhibitor”, and “Substrate Control”. • 3) Add 20 μl of PDE assay buffer to each well designated “Substrate Control” and 45 μl of PDE assay buffer to each well designated “Blank”. • 4) Add 5 μl of inhibitor solution to each well designated “Test Inhibitor”. For the wells labeled “Positive Control”, “Substrate Control” and “Blank”, add 5 μl of the same solution without inhibitor (inhibitor buffer). • 5) Thaw PDE on ice. Upon first thaw, briefly spin tube containing enzyme to recover the full contents of the tube. • 6) Dilute PDE4 in PDE buffer to 7.5 pg/μl (0.15 ng/reaction)*. Initiate reaction by adding 20 µl of PDE4 (7.5 pg/μl) to the wells designated “Positive Control” and “Test Inhibitor.” • 7) Incubate at room temperature for 1 hour.
(§3) • 1) Mix binding agent thoroughly and dilute binding agent 1:100 with binding agent diluent. • 2) Add 100 μl diluted binding agent to each microwell. Incubate at room temperature for 1 hour with slow shaking. • 3) Read the fluorescent polarization of the sample in a microtiter-plate reader equipped for the measurement of fluorescence polarization, capable of excitation at wavelengths ranging from 485±5 nm and detection of emitted light ranging from 528±10 nm. Blank value is subtracted from all other values. • 4) Data Analysis: PDE activity assays were performed in duplicate at each concentration. Fluorescence intensity is converted to fluorescence polarization using the Tecan Magellan6 software. The fluorescence polarization data were analyzed using the computer software, Graphpad Prism. The fluorescence polarization (FPt) in absence of the compound in each data set was defined as 100% activity. In the absence of PDE and the compound, the value of fluorescent polarization (FPb) in each data set was defined as 0% activity. The percent activity in the presence of the compound was calculated according to the following equation: % activity=(FP−FPb)/(FPt−FPb)×100%, where FP=the fluorescence polarization in the presence of the compound. The values of % activity versus a series of compound concentrations were then plotted using non-linear regression analysis of sigmoidal dose-response curve generated with the equation Y=B+(T−B)/1+10^(LogEC50−X)×Hill Slope), where Y=percent activity, B=minimum percent activity, T=maximum percent activity, X=logarithm of compound and Hill Slope=slope factor or Hill coefficient. The IC50 value was determined by the concentration causing a half-maximal percent activity.

PDE4B2 = PDE4B2 (Homo sapiens (Human), UniProt Q07343); test: PDE4 inhibition assay (fluorescence polarization), PDE4B2; type: biochemical
Sequence of PDE4B2 (Q07343 other isoform, or with tags, fused parts or gaps): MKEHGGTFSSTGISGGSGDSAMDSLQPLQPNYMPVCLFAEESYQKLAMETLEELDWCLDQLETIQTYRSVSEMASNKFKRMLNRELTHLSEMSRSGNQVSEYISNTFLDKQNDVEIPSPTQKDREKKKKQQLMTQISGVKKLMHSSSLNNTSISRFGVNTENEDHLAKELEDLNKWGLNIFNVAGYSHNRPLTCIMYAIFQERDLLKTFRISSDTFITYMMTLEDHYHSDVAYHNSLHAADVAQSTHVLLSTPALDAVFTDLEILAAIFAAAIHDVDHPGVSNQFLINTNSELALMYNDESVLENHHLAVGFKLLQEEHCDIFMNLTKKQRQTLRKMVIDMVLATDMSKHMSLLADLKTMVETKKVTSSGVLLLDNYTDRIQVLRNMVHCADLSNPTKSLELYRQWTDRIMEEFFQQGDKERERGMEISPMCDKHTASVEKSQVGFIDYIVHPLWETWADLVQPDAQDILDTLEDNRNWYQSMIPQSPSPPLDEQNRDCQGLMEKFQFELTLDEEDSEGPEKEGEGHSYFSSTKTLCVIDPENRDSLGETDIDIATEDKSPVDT
Protocol: as §1, §2, §3

PDE4C1 = PDE4C1 (Homo sapiens (Human), UniProt Q08493); test: PDE4 inhibition assay (fluorescence polarization), PDE4C1; type: biochemical
Sequence of PDE4C1 (Q08493 whole entry): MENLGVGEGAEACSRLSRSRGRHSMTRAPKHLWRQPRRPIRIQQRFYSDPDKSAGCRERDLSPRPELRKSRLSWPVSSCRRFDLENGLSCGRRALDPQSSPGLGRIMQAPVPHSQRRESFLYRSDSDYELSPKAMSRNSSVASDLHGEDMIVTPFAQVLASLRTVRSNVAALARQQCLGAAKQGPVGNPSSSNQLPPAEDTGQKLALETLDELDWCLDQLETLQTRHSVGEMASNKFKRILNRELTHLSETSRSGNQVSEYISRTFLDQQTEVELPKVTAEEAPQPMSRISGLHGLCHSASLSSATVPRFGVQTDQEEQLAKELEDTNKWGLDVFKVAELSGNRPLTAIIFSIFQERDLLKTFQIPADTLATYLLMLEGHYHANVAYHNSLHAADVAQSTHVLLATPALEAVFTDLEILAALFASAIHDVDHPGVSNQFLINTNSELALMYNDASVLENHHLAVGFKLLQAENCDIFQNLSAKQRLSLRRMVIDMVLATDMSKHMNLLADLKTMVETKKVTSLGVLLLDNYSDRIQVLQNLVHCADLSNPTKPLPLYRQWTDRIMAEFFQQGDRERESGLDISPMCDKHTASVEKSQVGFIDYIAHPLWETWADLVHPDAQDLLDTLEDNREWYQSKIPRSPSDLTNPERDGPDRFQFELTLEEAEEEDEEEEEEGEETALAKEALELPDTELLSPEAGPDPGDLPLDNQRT
Protocol: as §1, §2, §3

PDE4D2 = PDE4D2 (Homo sapiens (Human), UniProt Q08499); test: PDE4 inhibition assay (fluorescence polarization), PDE4D2; type: biochemical
Sequence of PDE4D2 (Q08499 303-809): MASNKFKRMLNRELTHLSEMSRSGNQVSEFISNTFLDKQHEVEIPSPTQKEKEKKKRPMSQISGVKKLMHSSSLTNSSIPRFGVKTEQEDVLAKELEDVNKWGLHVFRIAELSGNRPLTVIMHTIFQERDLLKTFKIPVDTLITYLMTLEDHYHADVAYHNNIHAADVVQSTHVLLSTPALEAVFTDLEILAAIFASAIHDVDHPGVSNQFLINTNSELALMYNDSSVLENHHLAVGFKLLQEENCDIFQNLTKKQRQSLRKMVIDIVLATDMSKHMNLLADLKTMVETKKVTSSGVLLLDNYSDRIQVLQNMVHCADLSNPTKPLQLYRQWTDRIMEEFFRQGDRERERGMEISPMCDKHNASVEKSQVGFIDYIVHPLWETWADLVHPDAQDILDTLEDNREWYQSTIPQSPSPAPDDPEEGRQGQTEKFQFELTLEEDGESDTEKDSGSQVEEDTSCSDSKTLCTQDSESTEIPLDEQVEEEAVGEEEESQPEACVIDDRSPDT
Protocol: as §1, §2, §3

mouse behavior = test: SmartCube system behavioral signature in mice; type: in vivo
From the text: To confirm that compound 018 and Compound 019 has antidepressant effects, the SmartCube® system (Psychogenics, Inc., Paramus, NJ) was used. This system uses features derived from mouse behavioral data to classify compounds for their ability to treat neuro-psychiatric symptoms by comparing the features to a proprietary reference database of behavioral feature sets that are linked to classes of marketed drugs known to treat neuro-psychiatric symptoms. Thus the system can be used as a model to identify the psychiatric effect of a compound by comparing the effects of the compounds against drugs with known validated effects. By comparing the responses of animals to known drugs, the test drug can be categorized according to its function; for example, hallucinogen, anxiogenic, analgesic, cognitive enhancer, psychostimulant, mood stabilizer, high dose anti-psychotic, anti-psychotic, sedative/hypnotic, anxiolytic, high dose antidepressant, antidepressant.
Once all features are extracted from the raw data through an automated pipeline, proprietary bioinformatics algorithms are used to decorrelate groups of features and find the combination of values that best separate different groups of interest. For each compound, at each dose, they system provides a probability that the drug is active and breaks down such putative activity into the different classes of interest.
Mice were tested in the SmartCube® system where they were exposed to a sequence of challenges during the 45-minute test period. The cubes were cleaned between each run.
For class and subclass analysis, a reference data set has been built from hundreds of drug doses in multiple drug classes plus a control group. Each reference drug was tested at multiple doses appropriate for that drug in mice. The best performing classifiers were chosen from our evaluation tests and two separate types of classifiers were built that make independent predictions at drug class and subclass levels. The Class consists of drugs that are currently in the market or have been clinically validated for that specific indication. The sub-class consists of both marketed drugs and other compounds that have been mechanistically validated and is a larger set than the Class.
Data was processed using proprietary computer vision and data mining algorithms and the results were compared to signatures of the reference compounds in our database. Multiple analyses of the data was performed to quantitatively produce independent predictions of drug class, and drug subclass. The behavioral signatures of the test drug were evaluated using these classifiers to predict potential therapeutic utility.

[1] = human, 1 µM
Protocol: (§4) A 2.5 uL aliquot of 100 μM test compound was incubated with 247.5 uL of cryopreserved hepatocytes suspended in serum-free incubation medium at 1 million viable cells/mL. The mixture was incubated at 37° C. and shaken at 500 rpm for the designated time points (0.5, 5, 10, 15, 30, 60, 90, or 120 min). At each time point, 25 uL aliquot of incubation mixture was transferred to 125 uL of cold acetonitrile containing internal standard, followed by centrifugation for 30 min at 3,220 g. 100 uL of supernatant was mixed with 100 uL of distilled water for analysis by LC-MS/MS. Peak area ratios were determined from extracted ion chromatograms and percent recovery was calculated.

[2] = beagle, dog, in vivo
From the text: (§5) HPLC Instrument: Shimsadzu (DGU-20A5R, Serial No: L20705621435 IX; LC-30AD Serial No: L20555611905 AE and L20555611816 AE; SIL-L30AC, Serial No: L20565605499 AE; Rack Changer II Serial No. L20585601125 SS; CTO20A: Serial No. L20205620413 CD; CBM-20A: Serial No. L20235636200 CD) • MS: AB API 5500 LC/MS/MS instrument (Serial No. EF221221812) • Column: Phenomenex Synergi 2.5 μm Polar-RP 100A. (50×3 mm) • Mobile Phase: (A) 5% Acetonitrile in Water (0.1% Formic acid); (B) 95% Acetonitrile in Water (0.1% Formic acid) • Samples: 50 μL of plasma sample+5 μL of blank solution+200 μL of acetonitrile for PPE (protein precipitation extraction).
(§6) The desired serial concentrations of working solutions were achieved by diluting stock solution of analyte with 50% acetonitrile in water solution. 5 μL of working solutions (5, 10, 20, 50, 100, 500, 1000, 5000, 10000 ng/mL) were added to 50 μL of the blank Beagle Dog plasma to achieve calibration standards of 0.5˜1000 ng/mL (0.5, 1, 2, 5, 10, 50, 100, 500, 1000 ng/mL) in a total volume of 55 μL. Five quality control samples at 1 ng/mL, 2 ng/mL, 5 ng/mL, 50 ng/mL and 800 ng/mL for plasma were prepared independently of those used for the calibration curves. These QC samples were prepared on the day of analysis in the same way as calibration standards.
(§7) 55 μL standards, 55 μL QC samples and 55 μL unknown samples 50 μL plasma with 5 μL blank solution) were added to 200 μL of acetonitrile containing IS mixture for precipitating protein respectively. Then the samples were vortexed for 30 s. After centrifugation at 4 degree Celsius, 3900 rpm for 15 min, the supernatant was diluted 3 times with water.

in vivo = conditions: beagle, dog
From the text: as §5, §6, §7

in vitro = conditions: human hepatocytes
Protocol: as §4

[3] = Hepatocyte metabolism (stability in cryopreserved hepatocytes); conditions: human hepatocytes
Protocol: as §4

[4] = Pharmacokinetic profile in dogs (IV and PO); conditions: dog, mean n=3
From the text: as §5, §6, §7

5-HT transporter (SERT) = 5-HT transporter (SERT) (Homo sapiens (Human), UniProt P31645); conditions: cited from earlier work

COc1ccc([C@@]23CC[C@@H](O)C[C@@H]2N(C)CC3)cc1OC [Compound 018, (3aS,6R,7aS)-3a-(3,4-dimethoxyphenyl)-1-methyloctahydro-1H-indol-6-ol]
IC50 (SERT): 21.9 ± 8 nM | PDE4A1A % INH @ 10 μM (PDE4A1A; 10 μM): 5% | inhibition at 10 µM (PDE4A1A; 10 μM, read-out: PDE4A1A % INH @ 10 μM): ≤ 5% | PDE4B2 % INH @ 10 μM (PDE4B2): 3% | inhibition at 10 µM (PDE4B2; read-out: PDE4B2 % INH @ 10 μM): ≤ 5% | PDE4C1 % INH @ 10 μM (PDE4C1): 1% | PDE4C1 % INH @ 10 μM (PDE4C1; listed as Compound 18): no more than 5% | PDE4D2 %INH @ 10 μM (PDE4D2; 10 μM): 4% | inhibition at 10 µM (PDE4D2; 10 μM, read-out: PDE4D2 %INH @ 10 μM): ≤ 5% | behavioral activity (mouse behavior; mice, 3 mg/kg): < 40% | behavioral activity (in words) (mouse behavior; mice, 3 mg/kg): behaviorally inactive | signature in class and subclass (mouse behavior; mice, 10, 30 and 100 mg/kg): robust antidepressant-like signature with a small portion showing psychostimulant-like signature | % QH [1]: 13% | CLHB [1]: 3 mL/min/kg | AUC_% Extrap_obs ([2]; iv, 2 mg/kg): 0.26% | AUClast/D ([2]; iv, 2 mg/kg): 355 | Cl_obs ([2]; iv, 2 mg/kg): 47.6 mL/min/kg | AUC_% Extrap_obs ([2]; po, 10 mg/kg): 5.10% | AUClast/D ([2]; po, 10 mg/kg): 14.4 | F ([2]; po, 10 mg/kg): 4.3% | AUC(0-inf) (in vivo; iv, 2 mg/kg): 712 ng·h/mL | AUC(0-t) (in vivo; iv, 2 mg/kg): 710 ng·h/mL | C0 (in vivo; iv, 2 mg/kg): 6250 ng/mL | MRT inf (in vivo; iv, 2 mg/kg): 0.71 h | half-life (in vivo; iv, 2 mg/kg): 1.78 h | AUC(0-inf) (in vivo; po, 10 mg/kg): 151 ng·h/mL | AUC(0-t) (in vivo; po, 10 mg/kg): 144 ng·h/mL | Cmax (in vivo; po, 10 mg/kg): 84.4 ng/mL | MRT inf (in vivo; po, 10 mg/kg): 3.95 h | Tmax (in vivo; po, 10 mg/kg): 0.28 h | half-life (in vivo; po, 10 mg/kg): 5.95 h | CLint scaled at 1 µM (in vitro): 3 mL/min/kg | half-life at 1 µM (in vitro): > 2 h | hepatocyte CLint at 1 µM (in vitro): 1 µL/min/1e6 cells | Extraction Ratio [3]: 0.13 | t1/2 [3]: >2 h

COc1ccc(C23C=CC(O)CC2N(C)CC3)cc1OC [Compound 020, (S, R, S) Mesembrenol]
PDE4A1A % INH @ 10 μM (PDE4A1A; 10 μM): 68% | PDE4B2 % INH @ 10 μM (PDE4B2): 62% | PDE4C1 % INH @ 10 μM (PDE4C1): 32% | PDE4D2 %INH @ 10 μM (PDE4D2; 10 μM): 72%

COc1ccc(C23C=CC(O)CC2N(C)CC3)cc1OC [Compound 024, (S, S, R) Mesembrenol]
PDE4A1A % INH @ 10 μM (PDE4A1A; 10 μM): 45% | PDE4B2 % INH @ 10 μM (PDE4B2): 55% | PDE4C1 % INH @ 10 μM (PDE4C1): 18% | PDE4D2 %INH @ 10 μM (PDE4D2; 10 μM): 53%

(+) Mesembrine [Compound 002]
PDE4A1A % INH @ 10 μM (PDE4A1A; 10 μM): 56% | PDE4C1 % INH @ 10 μM (PDE4C1): 26% | PDE4D2 %INH @ 10 μM (PDE4D2; 10 μM): 54%

(−) Mesembrine [Compound 001]
IC50 (PDE4A1A): 4300 nM | IC50 (PDE4C1): 15000 nM | IC50 (PDE4D2): 2700 nM | AUCInf ([4]; IV 2 mg/kg): 809 ng·h/mL | AUC_% Extrap_obs ([4]; IV 2 mg/kg): 0.53% | AUClast ([4]; IV 2 mg/kg): 805 ng·h/mL | AUClast/D ([4]; IV 2 mg/kg): 402 | C0 ([4]; IV 2 mg/kg): 1226 ng/mL | Cl_obs ([4]; IV 2 mg/kg): 44.07 mL/min/kg | MRTInf_obs ([4]; IV 2 mg/kg): 1.41 h | T1/2 ([4]; IV 2 mg/kg): 1.65 h | AUCInf ([4]; PO 10 mg/kg): 3113.0 ng·h/mL | AUC_% Extrap_obs ([4]; PO 10 mg/kg): 0.25% | AUClast ([4]; PO 10 mg/kg): 3106.9 ng·h/mL | AUClast/D ([4]; PO 10 mg/kg): 310.7 | Cmax ([4]; PO 10 mg/kg): 1878.0 ng/mL | F ([4]; PO 10 mg/kg): 76.9% | MRTInf_obs ([4]; PO 10 mg/kg): 1.81 h | T1/2 ([4]; PO 10 mg/kg): 2.99 h | Tmax ([4]; PO 10 mg/kg): 0.28 h | % QH [3]: 86% | CLHB [3]: 18 mL/min/kg | Hepatocyte Clint [3]: 55 μL/min/10^6 cells | t1/2 [3]: 0.217 h | CLint ([3]; scaled): 131 mL/min/kg

COc1ccc(C23C=CC(O)CC2N(C)CC3)cc1OC [Compound 021, (R, R, S) Mesembrenol]
PDE4A1A % INH @ 10 μM (PDE4A1A; 10 μM): 22% | PDE4B2 % INH @ 10 μM (PDE4B2): 12% | PDE4C1 % INH @ 10 μM (PDE4C1): 7% | PDE4D2 %INH @ 10 μM (PDE4D2; 10 μM): 15%

COc1ccc(C23C=CC(O)CC2N(C)CC3)cc1OC (stereo not shown) [Mesembrenol]
Ki (5-HT transporter (SERT); binding to the 5-HT transporter, isolated alkaloids): 62 nM | nH (5-HT transporter (SERT); concentration response curves, 5-HT transporter): 1.1

COc1ccc(C23C=CC(O)CC2N(C)CC3)cc1OC [Compound 023, (R, S, R) Mesembrenol]
PDE4A1A % INH @ 10 μM (PDE4A1A; 10 μM): 15% | PDE4B2 % INH @ 10 μM (PDE4B2): 16% | PDE4C1 % INH @ 10 μM (PDE4C1): 9% | PDE4D2 %INH @ 10 μM (PDE4D2; 10 μM): 21%
